From US10590088B2, “4-(benzimidazol-2-ylamino)benzamide derivatives and methods of synthesis thereof” (TRANSLATIONAL DRUG DEVELOPMENT, LLC, priority 2009, dated 2020)

Tests used:
SKOV3 cells = assay: CellTiter-Blue cell viability assay, single agent, 72 hour treatment, SKOV3; type: cell-based; conditions: Homo sapiens, SK-OV-3
Protocol: (§1) Cell viability in the presence of varying concentrations of the above listed compounds at different time points was used to assess cytotoxicity and the effect of the compounds on cell proliferation.
(§2) Cell viability was measured by the CellTiter-Blue® cell viability assay Promega (Madison, Wis.). This procedure measures the conversion of the indicator dye (resazurin) to resorufin, an indicator of cell viability. Following treatment, growth media was removed and cells were incubated with 20 μl of CellTiter-Blue® Reagent and growth media for 1-4 hours at 37° C. Fluorescence values were measured at 535/590 nm using a Beckman-Coulter DTX-880 microplate reader.
(§3) Cells were grown to 70% confluency, trypsinized, counted, and seeded in 96 well flat-bottom plates at a final concentration of 2.5×10^3-5×10^3 cells/well (Day 0). Cells were allowed to incubate in growth media for 24 hours to allow for maximum adhesion. Treatment with the test agents or standard agents began on Day 1 and continued for 72 hours. At the 72 hour timepoint, treatment containing media was removed. Viable cell numbers are quantified by the CellTiter-Blue® cell viability assay as described above. Experiments were repeated at least twice with the same concentrations to determine growth inhibitory activity. Results from these studies were used to calculate an IC50 value (concentration of drug that inhibits cell growth by 50 percent of control) for each compound.
(§4) For single agent and combination studies, data from each experiment was collected and expressed as % Cell Growth using the following calculation: % Cell Growth=(ftest/fvehicle)×100
(§5) Where ftest is the fluorescence of the tested sample, and fvehicle is the fluorescence of the vehicle in which the drug is dissolved. Dose response graphs and IC50 values were generated using Prism 4 software (GraphPad) using the following equation: […]
(§6) Where X is the logarithm of concentration and Y is the response. Y starts at the Bottom and goes to Top with a sigmoid shape.

[1] = system: A2780 human ovarian cells xenograft; assay: In vivo efficacy in human ovarian tumor xenograft model; conditions: female Ncr nude mice
Protocol: FIG. 1 depicts in vivo efficacy studies of compound #4 (N-hydroxy-4-(1-(2-methoxyethyl)-1H-benzo[d]imidazol-2-ylamino)benzamide) in A2780 xenograft models.
In vivo efficacy of the disclosed compound was tested through a human ovarian tumor xenograft model. Female Ncr nude mice were inoculated with 1×10^7 A2780 human ovarian cells suspended in a mixture of 50% Matrigel and 50% tissue culture media in a total volume of 100 μl. Four days following inoculation, the mice were pair-matched into four groups of 7-8 mice per group at an average tumor weight of 157 mg per group. Group 1 (G1) was treated with vehicle only daily for 14 days. Group 3 (G3) was treated with Compound ID #4 (T062) at 100 mg/kg daily for 14 days. Group 5 (G5) was treated with Doxil at 3 mg/kg on Day 1 only. Group 6 (G6) was treated with Compound ID #4 (T062) at 50 mg/kg (daily for 14 days) plus Doxil at 3 mg/kg on Day 1 only. Group 7 (G7) was treated with Compound ID #4 (T062) at 100 mg/kg (daily for 14 days) plus Doxil at 3 mg/kg on Day 1 only. Vehicle and Compound ID #4 were administered orally via oral gavage while Doxil was administered intravenously via tail injection. Body weights and tumor measurements were collected twice weekly. Tumor width and length were measured in millimeters and converted to tumor weight (in milligrams) using the formula […]=tumor weight (mg.).

A2780 cells = assay: CellTiter-Blue cell viability assay, single agent, 72 hour treatment, A2780; type: cell-based; conditions: Homo sapiens
Protocol: as §1, §2, §3, §4, §5, §6

SMILES | IC50 (SKOV3 cells) | In vivo efficacy (tumor weight) versus Doxil as a single agent ([1]; Group 6: Compound ID #4 50 mg/kg oral daily for 14 days plus Doxil 3 mg/kg i.v. on Day 1 only) | In vivo efficacy (tumor weight) versus Doxil as a single agent ([1]; Group 7: Compound ID #4 100 mg/kg oral daily for 14 days plus Doxil 3 mg/kg i.v. on Day 1 only) | IC50 (A2780 cells)
CC(C)n1c(Nc2ccc(C(=O)Nc3ccccc3N)cc2)nc2ccccc21 [ID 1, N-(2-aminophenyl)-4-(1-isopropyl-1H-benzo[d]imidazol-2-ylamino)benzamide] | 4.8 µM | – | – | –
COCCn1c(Nc2ccc(C(=O)NO)cc2)nc2ccccc21 [ID 4, N-hydroxy-4-(1-(2-methoxyethyl)-1H-benzo[d]imidazol-2-ylamino)benzamide] | – | improved efficacy over Group 5 | improved efficacy over Group 5 | –
COCCCn1c(Nc2ccc(C(=O)NO)cc2)nc2ccccc21 [ID 9, N-hydroxy-4-(1-(3-methoxypropyl)-1H-benzo[d]imidazol-2-ylamino)benzamide] | – | – | – | 1.9 µM
COCCn1c(Nc2ccc(C(=O)NO)cc2)nc2cc(Br)ccc21 [ID 10, 4-(5-bromo-1-(2-methoxyethyl)-1H-benzo[d]imidazol-2-ylamino)-N-hydroxybenzamide] | 6.9 µM | – | – | 4.1 µM
O=C(NO)c1ccc(Nc2nc3ccccc3n2CCO)cc1 [ID 11, N-hydroxy-4-(1-(2-hydroxyethyl)-1H-benzo[d]imidazol-2-ylamino)benzamide] | 34 µM | – | – | 40 µM
COCCn1c(Nc2ccc(C(=O)NO)cc2)nc2cc(F)ccc21 [ID 12, 4-(5-fluoro-1-(2-methoxyethyl)-1H-benzo[d]imidazol-2-ylamino)-N-hydroxybenzamide] | 0.7 µM | – | – | 1.4 µM
CC(C)OCCn1c(Nc2ccc(C(=O)NO)cc2)nc2ccccc21 [ID 13, N-hydroxy-4-(1-(2-isopropoxyethyl)-1H-benzo[d]imidazol-2-ylamino)benzamide] | 1.9 µM | – | – | 5.1 µM
COCCn1c(Nc2ccc(C(=O)NO)cc2)nc2cc(-c3cccc(F)c3)ccc21 [ID 14, 4-(5-(3-fluorophenyl)-1-(2-methoxyethyl)-1H-benzo[d]imidazol-2-ylamino)-N-hydroxybenzamide] | 0.3 µM | – | – | 1.1 µM
COCCn1c(Nc2ccc(C(=O)NO)cc2)nc2cc(-c3cncnc3)ccc21 [ID 15, N-hydroxy-4-(1-(2-methoxyethyl)-5-(pyrimidin-5-yl)-1H-benzo[d]imidazol-2-ylamino)benzamide] | 48 µM | – | – | 16 µM
COCCn1c(Nc2ccc(C(=O)NO)cc2)nc2cc(C3CC3)ccc21 [ID 16, 4-(5-cyclopropyl-1-(2-methoxyethyl)-1H-benzo[d]imidazol-2-ylamino)-N-hydroxybenzamide] | 4.3 µM | – | – | 15 µM
CN(C)CCn1c(Nc2ccc(C(=O)NO)cc2)nc2cc(Br)ccc21 [ID 17, 4-(5-bromo-1-(2-(dimethylamino)ethyl)-1H-benzo[d]imidazol-2-ylamino)-N-hydroxybenzamide] | 8.2 µM | – | – | –
CC(C)n1c(Nc2ccc(C(=O)NO)cc2)nc2cc(-c3cncnc3)ccc21 [ID 18, N-hydroxy-4-(1-isopropyl-5-(pyrimidin-5-yl)-1H-benzo[d]imidazol-2-ylamino)benzamide] | 21 µM | – | – | –
CC(C)n1c(Nc2ccc(C(=O)NO)cc2)nc2cc(-c3cccnc3)ccc21 [ID 19, N-hydroxy-4-(1-isopropyl-5-(pyridin-3-yl)-1H-benzo[d]imidazol-2-ylamino)benzamide] | 8.1 µM | – | – | –
COCCn1c(Nc2ccc(C(=O)Nc3ccccc3N)cc2)nc2ccccc21 [ID 20, N-(2-aminophenyl)-4-(1-(2-methoxyethyl)-1H-benzo[d]imidazol-2-ylamino)benzamide] | 5.8 µM | – | – | –
COCCn1c(Nc2ccc(C(=O)NO)cc2)nc2ccc(F)cc21 [ID 21, 4-(6-fluoro-1-(2-methoxyethyl)-1H-benzo[d]imidazol-2-ylamino)-N-hydroxybenzamide] | 17.7 µM | – | – | 12.1 µM
COCCn1c(Nc2ccc(C(=O)NO)cc2)nc2c(F)cccc21 [ID 22, 4-(4-fluoro-1-(2-methoxyethyl)-1H-benzo[d]imidazol-2-ylamino)-N-hydroxybenzamide] | 17.6 µM | – | – | 12.1 µM
COCc1ccc2c(c1)nc(Nc1ccc(C(=O)NO)cc1)n2C(C)C [ID 23, N-hydroxy-4-(1-isopropyl-5-(methoxymethyl)-1H-benzo[d]imidazol-2-ylamino)benzamide] | 16 µM | – | – | 22 µM
